Source: the supplement of paper PMC10307832

Compound: COc1ccc(-c2ccc3c(N4CCOC[C@@H]4C)nc(N4CCOC[C@@H]4C)nc3n2)cc1CO [AZD8055] + CC(C)C[C@H](NC(=O)[C@H](Cc1ccccc1)NC(=O)c1cnccn1)B(O)O [Bortezomib] (partner 0.002 µM)
Assay: relative viability (nuclei count vs DMSO), 5 days (fraction); higher = more cells survive
In short: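 Lung cancer cell lines were seeded in 1536-well plates and dosed by pin tool the next day, with either a single drug or a fixed anchor-drug dose combined with five library-drug doses (not always all listed) spaced in √10 steps. Five days later, one step fixed the cells and stained their nuclei (final 0.05% Triton X-100, 1% formaldehyde, 1 ug/ml Hoechst), and nuclei were counted on 4× images. Relative viability is the nuclei count in treated wells divided by the count in vehicle wells, and each value is the median of duplicate plates.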

Cell Line | relative viability (first compound 0.01 µM) | relative viability (first compound 0.03162 µM) | relative viability (first compound 0.1 µM) | relative viability (first compound 0.3162 µM) | relative viability (first compound 1 µM)
H3255 | 0.777 | 0.901 | 0.525 | 0.371 | 0.259
EPLC-272H | 0.74 | 0.62 | 0.754 | 0.522 | 0.691
PC-3 [JPC-3] | 0.911 | 0.872 | 0.83 | 0.687 | 0.555
EKVX | 0.942 | 1 | 0.832 | 0.499 | 0.356
ChaGo-K-1 | 1.03 | 1.12 | 1.09 | 0.87 | 0.647
NCI-H23 | 1.3 | 0.881 | 0.791 | 0.27 | 0.271
EMC-BAC-2 | 1.06 | 1.04 | 0.954 | 0.465 | 0.382
LOU-NH91 | 0.452 | 0.512 | 0.489 | 0.497 | 0.381
LU99A | 0.936 | 0.549 | 0.374 | 0.235 | 0.209
NCI-H460 | 1.25 | 0.79 | 0.44 | 0.195 | 0.0935
201T | 1.12 | 1.1 | 1.11 | 0.881 | 0.811
NCI-H2405 | 1 | 0.975 | 0.906 | 0.46 | 0.414
NCI-H1703 | 0.278 | 0.231 | 0.18 | 0.181 | 0.194
NCI-H1755 | 0.98 | 0.879 | 0.75 | 0.459 | 0.359
NCI-H2087 | 0.783 | 0.992 | 0.796 | 0.441 | 0.252
NCI-H2228 | 0.877 | 0.507 | 0.315 | 0.198 | 0.29
NCI-H727 | 0.976 | 0.824 | 0.698 | 0.388 | 0.275
NCI-H650 | 0.658 | 0.511 | 0.681 | 0.343 | 0.291
NCI-H520 | 0.623 | 0.185 | 0.16 | 0.127 | 0.147
EBC-1 | 0.485 | 0.502 | 0.301 | 0.236 | 0.224
NCI-H661 | 1.09 | 0.619 | 0.758 | 0.396 | 0.295
NCI-H1299 | 1.08 | 1.05 | 1.11 | 0.931 | 0.576
NCI-H1993 | 0.886 | 0.706 | 0.599 | 0.568 | 0.586

Cell Line | relative viability (first compound 0.01 µM) | relative viability (first compound 0.03162 µM) | relative viability (first compound 0.1 µM) | relative viability (first compound 0.3162 µM) | relative viability (first compound 1 µM)
NCI-H838 | 1.37 | 0.513 | 0.302 | 0.227 | 0.298
NCI-H1437 | 0.611 | 0.549 | 0.422 | 0.206 | 0.209
LCLC-103H | 1.15 | 0.934 | 0.93 | 0.745 | 0.673
NCI-H441 | 0.502 | 0.577 | 0.396 | 0.168 | 0.186
SK-LU-1 | 1.25 | 1.06 | 0.74 | 0.481 | 0.422
BEN | 0.663 | 0.472 | 0.428 | 0.365 | 0.262
LC-2-ad | 1.08 | 1.01 | 1.08 | 0.777 | 0.537
COR-L23 | 1.2 | 0.834 | 0.779 | 0.236 | 0.168
NCI-H1650 | 0.299 | 0.182 | 0.215 | 0.208 | 0.214
RERF-LC-KJ | 1.18 | 0.921 | 0.748 | 0.528 | 0.569
NCI-H1915 | 1.09 | 0.961 | 1.02 | 0.663 | 0.652
NCI-H596 | 0.856 | 0.722 | 0.697 | 0.459 | 0.497
IA-LM | 0.706 | 0.363 | 0.114 | 0.106 | 0.0977
NCI-H2009 | 1.14 | 0.649 | 0.845 | 0.35 | 0.264
NCI-H2126 | 1.14 | 1.08 | 1.05 | 0.676 | 0.638
LXF-289 | 1.06 | 0.982 | 0.951 | 0.682 | 0.756
NCI-H1563 | 0.862 | 0.808 | 0.758 | 0.599 | 0.773
HCC-44 | 1.01 | 0.942 | 0.853 | 0.494 | 0.449
PC-14 | 1.13 | 1.05 | 0.737 | 0.272 | 0.246
HOP-62 | 0.669 | 0.747 | 0.969 | 0.304 | 0.469
NCI-H1666 | 0.932 | 0.65 | 0.62 | 0.483 | 0.469
NCI-H1355 | 1.23 | 1.06 | 0.9 | 0.309 | 0.315
HCC-827 | 1.2 | 1.04 | 1.11 | 0.935 | 1.08

Cell Line | relative viability (first compound 0.01 µM) | relative viability (first compound 0.03162 µM) | relative viability (first compound 0.1 µM) | relative viability (first compound 0.3162 µM) | relative viability (first compound 1 µM)
HARA | 1.12 | 1.23 | 1.11 | 0.725 | 0.54
HCC-366 | 1.31 | 0.863 | 0.98 | 0.337 | 0.123
NCI-H322M | 1.24 | 1.34 | 1.17 | 0.894 | 1.11
NCI-H2347 | 0.704 | 0.944 | 0.598 | 0.438 | 0.401
NCI-H1975 | 0.409 | 0.303 | 0.282 | 0.206 | 0.216
UMC-11 | 0.824 | 0.662 | 0.397 | 0.215 | 0.195
ABC-1 | 0.3 | 0.287 | 0.366 | 0.284 | 0.329
A-427 | 1.01 | 0.815 | 0.858 | 0.518 | 0.462
LCLC-97TM1 | 0.524 | 0.417 | 0.345 | 0.103 | 0.162
HCC-15 | 1.17 | 1.1 | 0.976 | 0.663 | 0.615
NCI-H647 | 1.71 | 0.748 | 0.541 | 0.266 | 0.17
SW 1573 | 1.16 | 0.826 | 0.711 | 0.286 | 0.255
NCI-H1651 | 1.12 | 0.914 | 0.924 | 0.609 | 0.696
NCI-H1792 | 0.93 | 0.771 | 0.827 | 0.173 | 0.189
NCI-H2023 | 0.837 | 0.664 | 0.356 | 0.136 | 0.137
COR-L 105 | 0.997 | 0.879 | 0.565 | 0.309 | 0.373
NCI-H1734 | 0.954 | 0.729 | 0.552 | 0.278 | 0.274
NCI-H3122 | 1.14 | 0.998 | 1.09 | 0.728 | 0.657
CAL-12T | 1.21 | 0.955 | 0.521 | 0.298 | 0.316
HCC-78 | 0.561 | 0.466 | 0.423 | 0.274 | 0.288
NCI-H2085 | 1.11 | 0.859 | 0.705 | 0.407 | 0.357
